These are literature values, as cited in patent US10874768B2, “Drug eluting medical device” (priority 2017, dated 2020).

The conditions of this data set: human, 3 patients, 180 mg/m^2 infusion over 3 hours.

For `CC(=O)O[C@H]1C(=O)[C@@]2(C)[C@H]([C@H](OC(=O)c3ccccc3)[C@]3(O)C[C@H](OC(=O)[C@H](O)[C@@H](NC(=O)c4ccccc4)c4ccccc4)C(C)=C1C3(C)C)[C@]1(OC(C)=O)CO[C@@H]1C[C@@H]2O` [paclitaxel], the Cmax was 5.23 µM.

A word on the Cmax: it is the peak of the concentration-time curve.
